Experiments:
[1] = Acute toxicity / tolerated dose in healthy mice; assay type: in vivo, mouse; set-up: weight of experimental animals: unit not given here; settings: for animals in the group alive: 24 days
From the text: To this end, the effects of the agent according to the invention on the basic physiological functions of healthy animals were studied. 70 male Cs7Bl/6J mice at the age of 7-8 weeks, weighing 18-23 g were used in the experiment. The animals were taken from R. E. Kavetsky IEPOR NASU Vivarium. Before the experiment, all the animals were healthy, with normal behavioral performance. During the experiment, the animals were kept in plastic cages under natural light illumination, on a standard diet with free access to food and water.
Clinical observations were carried out by daily examination of all animals kept in cages to identify mortality or any signs of a deviation in health status. […] All deviations were recorded. The size of the tumors was measured every 2 days (3 times a week) after the apparent onset of ascites/tumor node growth (at day 8 after the inoculation of tumor cells). Dying animals were euthanized, weighed and necropsied. The decision to euthanize such animals was taken jointly with the research supervisor and veterinarian. The animals were subjected to complete necrosis, which included examination of the external surface of the body, all passages, cranial, thoracic, abdominal cavities and their contents.
In the experiment, the animals were administered the solution comprising ^64Zne aspartate intraperitoneally at doses of 120 μg/mouse, 80 μg/mouse, 50 μg/mouse and 25 μg/mouse, and intravenously at doses of 50 μg/mouse, 25 gig/mouse and 12.5 μg/mouse. The agent was dissolved in deuterium-depleted water and injected 7 times every other day for 14 days in a volume of 0.5 ml/mouse for intraperitoneal injection and in a volume of 0.2 ml for intravenous injection with the agent. In order to determine the maximum tolerated dose of ^64Zne aspartate included in the composition of the agent according to the invention, the laboratory mice were injected with the ^64Zne aspartate solution using a series of injections (7 injections) and different routes of administration (i.p. or i.v.). The animals were observed during 24 days after the first administration of the agent (14 days for a series of injections of the ^64Zne compound and 10 days after the last administration of the agent). The overall health of the animals, state of coat and mucous membranes, their behavior, reflexes, and basic functions of the gastrointestinal tract were evaluated.

[2] = system: acute promyelocyte leukemia (HL-60 line) cells; test: Immunocytochemical analysis (H-Score) of HL-60 cells; assay type: cell-based, human
Experimental: Materials and methods for leukemia cell lines HL-60 and Namalva and cell culture conditions will now be described. Initial HL-60 and Namalva cells were cultured in complete RPMI 1640 medium (PAA) (PAA, Austria) supplemented with 10% fetal calf serum (PAA) and incubated in 5% CO2 humidified atmosphere at 37° C. The culture medium was replaced in 2 to 3 days and the cells were passaged in 4 to 5 days.
In carrying out the immunocytochemical (ICC) assay, cells on microscope glasses (cytospin preparations) were fixed in the solution (methanol+acetone (1:1)) for 2 hours at t−20° C. and then incubated with a 1% solution of bovine serum albumin (BSA) for 20 minutes.
After the immunocytochemical reaction, the preparations were rinsed with water and counterstained with hematoxylin and eosin for 15 to 30 seconds. The results were analyzed by a quantitative estimation of cells with the marker expression (increased brown color of cells corresponded to a higher degree of expression of the marker) using a light microscope and assessed using the classical H-Score method: S=1×A+2×B+3×C, where S is the H-Score index the values of which are within the scope of 0 (protein is not detectable) to 300 (high-level expression in 100% of the cells), A is a percentage of weakly stained cells, B is the percentage of moderately stained cells, and C the percentage of strongly stained cells.

[3] = system: normal rat kidney cells (NRK line); test: Immunocytochemistry of NRK cells; assay type: cell-based
Experimental: When making the immunocytochemistry (ICC) assay, cells on microscope glasses (cytospin preparations) were fixed in the solution (methanol+acetone 1:1) for 2 hours at t 20° C. and incubated with 1% solution of bovine serum albumin (BSA) for 20 minutes. Then the monoclonal antibodies-CD44 (Diagnostic BioSystems), E-cadherin (ThermoScientific), N-cadherin (NeoMarker, BioLegend), SLUG (GeneTex)—were applied for the time period specified by the manufacturer (30 to 60 minutes), after which the Poly Vue imaging system conjugated with peroxidase was used and the enzyme activity was detected using diaminobenzidine (ThermoScientific) as a substrate. After the immunocytochemical reaction the preparations were washed with water and counterstained with hematoxylin-eosin (for 15 to 30 seconds).
The results were analyzed by counting cells with expression (brown colored cells) using a light microscope, and were assessed using the classical H-Score method: S=1×A+2×B+3×C, where S is the H-Score index giving a range of 0 (protein is not detected) to 300 (high-level expression in 100% of the cells); A is the percentage of weakly staining cells, B is the percentage of moderately staining cells and C is the percentage of strongly staining cells.

MCF-7 cell line = test: Cytogenetic analysis (micronucleus test) of MCF-7 cells; assay type: cell-based, human
Experimental: Advanced Micronucleus Test was used to assess the cytogenetic characteristics of cells after their exposure to the action of the test group of components.
Cytogenetic analysis was carried out after 48 hours of exposure of the cells to the action of the components. For cytogenetic analysis, the cells were incubated in hypotonic solution KCl (0.54%) (Reahim, Ukraine) for 40 minutes at +37° C. Then they were fixed with a mixture of methyl alcohol (Reahim, Ukraine) and acetic acid (Himlaborreaktiv, Ukraine) (3:1) with replacing the fixative three times. All fixed cell suspensions were applied on cold wet glasses, dried and stained with Giemsa stain (Sigma, Germany). The cytogenetic preparations were analyzed using a binocular microscope Sari Zeiss, AxioStarPlus (Germany) with magnification of x 1000. The following quantitative characteristics and stages of cell division were analyzed on the preparations: mitoses, cells with premature chromosome condensation (PCC), cells with micronuclei (CMN), apoptotic cells and cells with nuclear protrusions (protrusions) which were calculated for 1000 cells and expressed in per mille (%).

[4] = system: healthy human skin cells (HaCaT cell line); test: Scratch assay, HaCaT cells; assay type: cell-based; settings: ^64Zn 25 mcg/ml; equal to control
Experimental: The cells of A-549, A-431, NRK, HaCaT, MM-4, normal fibroblasts (derived from the Bank of Cell Lines from human and animal tissues, R. E. Kavetsky Institute of Experimental Pathology, Oncology and Radiobiology, National Academy of Sciences of Ukraine) were cultured in complete culture medium RPMI 1640/DMEM (PAA, Austria) (depending on the cell type) supplemented with 10% fetal calf serum (PAA, Austria) and incubated in 5% CO2 humidified atmosphere at 37° C. The culture medium was replaced in 2 to 3 days and the cells were passaged in 4 to 5 days.
Analysis of the influence of the components under study on the cell migration rate was performed using the scratch assay method. […]
The plate was incubated in a CO2 incubator for additional 48 hours. After the cells formed a dense monolayer it was damaged (by making a “scratch”) and the growth medium was replaced to remove cell debris and smooth the edges of the “scratch.” The rate of cell migration was analyzed using an inverted microscope and by photographing cells in the area of injury. The migration activity of cells was fixed at several time points (depending on the cell line analyzed). The microphotomicrographs were analyzed and the cell incubation time needed to restore the monolayer was determined for all experimental groups. […]

SMILES: NC(CC(=O)[O-])C(=O)[O-].[64Zn+2] (racemic) [^64Zne aspartate, ^64Zn aspartate (racemic)]
- animals in the group alive ([1]; i.p. 25 μg/mouse x7): 100% of the animals in the group are alive. Locomotor activity is
- weight of experimental animals ([1]; i.p. 25 μg/mouse, day 0): 21.1 ± 0.5
- weight of experimental animals ([1]; i.p. 25 μg/mouse, day 2): 20.1 ± 0.3
- weight of experimental animals ([1]; i.p. 25 μg/mouse, day 4): 18.3 ± 0.7
- weight of experimental animals ([1]; i.p. 25 μg/mouse, day 8): 18.4 ± 1
- weight of experimental animals ([1]; i.p. 25 μg/mouse, day 11): 18.2 ± 0.9
- weight of experimental animals ([1]; i.p. 25 μg/mouse, day 15): 19.2 ± 0.5
- weight of experimental animals ([1]; i.p. 25 μg/mouse, day 19): 19.8 ± 0.4
- weight of experimental animals ([1]; i.p. 25 μg/mouse, day 24): 20.5 ± 0.6
- animals in the group alive ([1]; i.p. 50 μg/mouse x7): 100% of the animals in the group are alive. Locomotor activity is
- weight of experimental animals ([1]; i.p. 50 μg/mouse, day 0): 21.3 ± 0.5
- weight of experimental animals ([1]; i.p. 50 μg/mouse, day 2): 20.4 ± 0.4
- weight of experimental animals ([1]; i.p. 50 μg/mouse, day 4): 19.2 ± 0.6
- weight of experimental animals ([1]; i.p. 50 μg/mouse, day 8): 19.8 ± 0.7
- weight of experimental animals ([1]; i.p. 50 μg/mouse, day 11): 19.5 ± 0.8
- weight of experimental animals ([1]; i.p. 50 μg/mouse, day 15): 19 ± 0.6
- weight of experimental animals ([1]; i.p. 50 μg/mouse, day 19): 19.2 ± 0.7
- weight of experimental animals ([1]; i.p. 50 μg/mouse, day 24): 20 ± 0.5
- animals in the group alive ([1]; i.p. 80 μg/mouse x7): 80% of the animals in the group are alive. Some changes in the
- animals died after 4 or 5 injections ([1]; i.p. 80 μg/mouse, 8th or 10th day): agent. 20% of the animals in the group died after 4 or 5 injections
- animals with short-lasting diarrhea ([1]; i.p. 80 μg/mouse, 18-24 hours after administration): It should be noted that a short-lasting diarrhea was observed in 40%
- body weight loss compared to the control figures ([1]; i.p. 80 μg/mouse, already on the 4th day after first injection): 15-20%
- weight of experimental animals ([1]; i.p. 80 μg/mouse, day 0): 21.4 ± 0.4
- weight of experimental animals ([1]; i.p. 80 μg/mouse, day 2): 20.5 ± 0.5
- weight of experimental animals ([1]; i.p. 80 μg/mouse, day 4): 17.3 ± 0.2
- weight of experimental animals ([1]; i.p. 80 μg/mouse, day 8): 17.5 ± 0.1
- weight of experimental animals ([1]; i.p. 80 μg/mouse, day 11): 17.3 ± 0.1
- weight of experimental animals ([1]; i.p. 80 μg/mouse, day 15): 16.5 ± 0.1
- weight of experimental animals ([1]; i.p. 80 μg/mouse, day 19): 17.2 ± 0.2
- weight of experimental animals ([1]; i.p. 80 μg/mouse, day 24): 17.6 ± 0.1
- animals in the group died ([1]; i.p. 120 μg/mouse, within 48 hours after the first injection): 100% of the animals in the group died within 48 hours after the
- animals in the group alive ([1]; i.v. 12.5 μg/mouse x7): 100% of the animals in the group are alive. Locomotor activity is
- weight of experimental animals ([1]; i.v. 12.5 μg/mouse, day 0): 21.1 ± 0.4
- weight of experimental animals ([1]; i.v. 12.5 μg/mouse, day 2): 20.9 ± 0.3
- weight of experimental animals ([1]; i.v. 12.5 μg/mouse, day 4): 20.2 ± 0.5
- weight of experimental animals ([1]; i.v. 12.5 μg/mouse, day 8): 20.6 ± 0.9
- weight of experimental animals ([1]; i.v. 12.5 μg/mouse, day 11): 20.6 ± 1
- weight of experimental animals ([1]; i.v. 12.5 μg/mouse, day 15): 20.9 ± 0.9
- weight of experimental animals ([1]; i.v. 12.5 μg/mouse, day 19): 21 ± 0.7
- weight of experimental animals ([1]; i.v. 12.5 μg/mouse, day 24): 21.1 ± 0.8
- animals in the group alive ([1]; i.v. 25 μg/mouse x7): 100% of the animals in the group are alive. Locomotor activity is
- weight of experimental animals ([1]; i.v. 25 μg/mouse, day 0): 21.8 ± 0.3
- weight of experimental animals ([1]; i.v. 25 μg/mouse, day 2): 21.3 ± 0.5
- weight of experimental animals ([1]; i.v. 25 μg/mouse, day 4): 20.8 ± 0.5
- weight of experimental animals ([1]; i.v. 25 μg/mouse, day 8): 21.4 ± 0.5
- weight of experimental animals ([1]; i.v. 25 μg/mouse, day 11): 21.4 ± 0.5
- weight of experimental animals ([1]; i.v. 25 μg/mouse, day 15): 21.3 ± 0.6
- weight of experimental animals ([1]; i.v. 25 μg/mouse, day 19): 21.7 ± 0.4
- weight of experimental animals ([1]; i.v. 25 μg/mouse, day 24): 21.6 ± 0.5
- animals in the group died ([1]; i.v. 50 μg/mouse, within 10-20 minutes after the first injection): 100% of the animals in the group died within 10-20 minutes after
- maximum tolerated dose ([1]; intraperitoneal): 80 μg/mouse
- maximum tolerated dose ([1]; intravenously): 25 μg/mouse

SMILES: [39K+].[Cl-] [^39K]
- amount of N-cadherin-positive cells [2]: in most cases increased
- number of cells expressing ICAM ([2]; ^39K 2 and 0.5 mg/ml, ^64Zn 10 mcg/ml): reduction in the number of cells
- level of expression of CD44 ([2]; especially in high doses): tendency to decrease in the level of expression

SMILES: O=S(=O)([O-])[O-].[64Zn+2] [^64Zn]
- phenotype of normal cells [3]: has not changed
- level of cells with micronuclei (MCF-7 cell line): more than a two-fold increase
- time of monolayer healing [4]: 36 h

Reference: US10857180B2, “Pharmaceutical composition for improving health, cure abnormalities and degenerative disease, achieve anti-aging effect of therapy and therapeutic effect on mammals and method thereof” (priority 2014, dated 2020)
